# Measurements as given in US12077503B2, “Substituted cyclic amides and their use as herbicides” (FMC CORPORATION, priority 2015, dated 2024).
# Where two headings read alike, the source gives them in different places.
# Experiments:
# Assay in all cases: Test A preemergence
# Type in all cases: in vivo
# [1] = tested on: ryegrass, Italian (Italian ryegrass, Lolium multiflorum); conditions: Lolium multiflorum, pre-emergence, 240 h; for pest or weed control at 125 g/ha: 125 g ai/ha; for pest or weed control at 125 g/ha / pest or weed control at 500 g/ha: preemergence; for pest or weed control at 31 g/ha: Preemergence, 31 g ai/ha, 0 to 100 scale (0 no effect, 100 complete control); for pest or weed control at 500 g/ha: 500 g ai/ha
# How it was run: (§1)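 Seeds sprayed preemergence with a directed soil spray, or plants at 2 to 10 cm height and one- to two-leaf stage sprayed postemergence, with test chemicals in a non-phytotoxic solvent mixture containing surfactant, in loam soil–sand blend. Injury rated visually against untreated controls after about 10 d in greenhouse, 0 (no effect) to 100 (complete control).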
# [2] = tested on: pigweed (Amaranthus retroflexus); conditions: Amaranthus retroflexus, pre-emergence, 240 h; for pest or weed control at 125 g/ha: 125 g ai/ha; for pest or weed control at 125 g/ha / pest or weed control at 500 g/ha: preemergence; for pest or weed control at 31 g/ha: Preemergence, 31 g ai/ha, 0 to 100 scale (0 no effect, 100 complete control); for pest or weed control at 500 g/ha: 500 g ai/ha
# [3] = tested on: giant foxtail (Setaria faberii); conditions: Setaria faberi, pre-emergence, 240 h; for pest or weed control at 125 g/ha: 125 g ai/ha; for pest or weed control at 125 g/ha / pest or weed control at 500 g/ha: preemergence; for pest or weed control at 31 g/ha: Preemergence, 31 g ai/ha, 0 to 100 scale (0 no effect, 100 complete control); for pest or weed control at 500 g/ha: 500 g ai/ha
# How it was run: as §1
# [4] = tested on: barnyardgrass (Echinochloa crus-galli); conditions: Echinochloa crus-galli, pre-emergence, 240 h; for pest or weed control at 125 g/ha: 125 g ai/ha; for pest or weed control at 125 g/ha / pest or weed control at 500 g/ha: preemergence; for pest or weed control at 31 g/ha: Preemergence, 31 g ai/ha, 0 to 100 scale (0 no effect, 100 complete control); for pest or weed control at 500 g/ha: 500 g ai/ha
# How it was run: as §1
# Kochia (Kochia scoparia) = conditions: Bassia scoparia, pre-emergence, 240 h; for pest or weed control at 125 g/ha: 125 g ai/ha; for pest or weed control at 125 g/ha / pest or weed control at 500 g/ha: preemergence; for pest or weed control at 31 g/ha: Preemergence, 31 g ai/ha, 0 to 100 scale (0 no effect, 100 complete control); for pest or weed control at 500 g/ha: 500 g ai/ha
# How it was run: as §1
# [5] = tested on: ragweed (common ragweed, Ambrosia elatior); conditions: Ambrosia artemisiifolia, pre-emergence, 240 h; for pest or weed control at 125 g/ha: 125 g ai/ha; for pest or weed control at 125 g/ha / pest or weed control at 500 g/ha: preemergence; for pest or weed control at 31 g/ha: Preemergence, 31 g ai/ha, 0 to 100 scale (0 no effect, 100 complete control); for pest or weed control at 500 g/ha: 500 g ai/ha
# How it was run: as §1
# [6] = visual rating after approx. 10 d, 0 to 100 scale where 0 is no effect and 100 is complete control, read-out: Plant response rating, Ryegrass, Italian
# [7] = read-out: Plant response rating, Ryegrass, Italian
# [8] = visual rating after approx. 10 d, 0 to 100 scale where 0 is no effect and 100 is complete control, read-out: Plant response rating, Pigweed
# [9] = read-out: Plant response rating, Pigweed
# [10] = visual rating after approx. 10 d, 0 to 100 scale where 0 is no effect and 100 is complete control, read-out: Plant response rating, Foxtail, Giant
# [11] = read-out: Plant response rating, Foxtail, Giant
# [12] = visual rating after approx. 10 d, 0 to 100 scale where 0 is no effect and 100 is complete control, read-out: Plant response rating, Barnyardgrass
# [13] = read-out: Plant response rating, Barnyardgrass
# [14] = visual rating after approx. 10 d, 0 to 100 scale where 0 is no effect and 100 is complete control, read-out: Plant response rating, Kochia
# [15] = read-out: Plant response rating, Kochia
# [16] = visual rating after approx. 10 d, 0 to 100 scale where 0 is no effect and 100 is complete control, read-out: Plant response rating, Ragweed
# [17] = read-out: Plant response rating, Ragweed
# [18] = visual injury rating, 0 to 100 scale where 0 is no effect and 100 is complete control, approximately 10 d, read-out: Ryegrass, Italian plant response rating
# [19] = 0 to 100 scale where 0 is no effect and 100 is complete control, read-out: Ryegrass, Italian plant response rating
# [20] = visual injury rating, 0 to 100 scale where 0 is no effect and 100 is complete control, approximately 10 d, read-out: Pigweed plant response rating
# [21] = 0 to 100 scale where 0 is no effect and 100 is complete control, read-out: Pigweed plant response rating
# [22] = visual injury rating, 0 to 100 scale where 0 is no effect and 100 is complete control, approximately 10 d, read-out: Foxtail, Giant plant response rating
# [23] = 0 to 100 scale where 0 is no effect and 100 is complete control, read-out: Foxtail, Giant plant response rating
# [24] = visual injury rating, 0 to 100 scale where 0 is no effect and 100 is complete control, approximately 10 d, read-out: Barnyardgrass plant response rating
# [25] = 0 to 100 scale where 0 is no effect and 100 is complete control, read-out: Barnyardgrass plant response rating
# [26] = visual injury rating, 0 to 100 scale where 0 is no effect and 100 is complete control, approximately 10 d, read-out: Kochia plant response rating
# [27] = 0 to 100 scale where 0 is no effect and 100 is complete control, read-out: Kochia plant response rating
# [28] = visual injury rating, 0 to 100 scale where 0 is no effect and 100 is complete control, approximately 10 d, read-out: Ragweed plant response rating
# [29] = 0 to 100 scale where 0 is no effect and 100 is complete control, read-out: Ragweed plant response rating
# [30] = 0 to 100 scale, 0 = no effect, 100 = complete control, read-out: Plant response rating, Pigweed
# [31] = 0 to 100 scale, 0 = no effect, 100 = complete control, read-out: Plant response rating, Foxtail, Giant
# [32] = 0 to 100 scale, 0 = no effect, 100 = complete control, read-out: Plant response rating, Barnyardgrass
# [33] = 0 to 100 scale, 0 = no effect, 100 = complete control, read-out: Plant response rating, Kochia
# [34] = 0 to 100 scale, 0 = no effect, 100 = complete control, read-out: Plant response rating, Ragweed
# [35] = 0 to 100 scale, 0 = no effect, 100 = complete control, read-out: Plant response rating, Ryegrass, Italian
SMILES,"pest or weed control at 125 g/ha [1, 6] [%]","pest or weed control at 125 g/ha [2, 8] [%]","pest or weed control at 125 g/ha [3, 10] [%]","pest or weed control at 125 g/ha [4, 12] [%]",pest or weed control at 125 g/ha (Kochia (Kochia scoparia); [14]) [%],"pest or weed control at 125 g/ha [5, 16] [%]","pest or weed control at 125 g/ha [1, 18] [%]","pest or weed control at 500 g/ha [1, 19] [%]","pest or weed control at 125 g/ha [2, 20] [%]","pest or weed control at 500 g/ha [2, 21] [%]","pest or weed control at 125 g/ha [3, 22] [%]","pest or weed control at 500 g/ha [3, 23] [%]","pest or weed control at 125 g/ha [4, 24] [%]","pest or weed control at 500 g/ha [4, 25] [%]",pest or weed control at 125 g/ha (Kochia (Kochia scoparia); [26]) [%],pest or weed control at 500 g/ha (Kochia (Kochia scoparia); [27]) [%],"pest or weed control at 125 g/ha [5, 28] [%]","pest or weed control at 500 g/ha [5, 29] [%]","pest or weed control at 500 g/ha [2, 30] [%]","pest or weed control at 500 g/ha [3, 31] [%]",also measured
CN1C[C@H](c2ccc(C(F)F)cc2)[C@@H](C(=O)Nc2ccccc2F)C1=O [Compound 803],0,60,90,90,70,60,,,,,,,,,,,,,,,"pest or weed control at 31 g/ha [1, 7]: 0%; pest or weed control at 31 g/ha [2, 9]: 40%; pest or weed control at 31 g/ha [3, 11]: 90%; pest or weed control at 31 g/ha [4, 13]: 70%; pest or weed control at 31 g/ha (Kochia (Kochia scoparia); [15]): 50%; pest or weed control at 31 g/ha [5, 17]: 30%"
CSc1ccccc1NC(=O)[C@H]1C(=O)NC[C@@H]1c1ccc(F)c(C#N)c1 [Compound 1201],,,,,,,0,0,20,70,70,80,0,70,30,70,60,70,,,
Cc1ccc([C@H]2CNC(=S)[C@@H]2C(=O)Nc2cccc(F)c2C)cc1C [Compound 764],0,0,70,100,0,0,,,,,,,,,,,,,0,80,"pest or weed control at 500 g/ha [4, 32]: 100%; pest or weed control at 500 g/ha (Kochia (Kochia scoparia); [33]): 0%; pest or weed control at 500 g/ha [5, 34]: 0%"
CN1C[C@H](c2ccc(F)c(C#N)c2)[C@@H](C(=O)Nc2ccccc2F)C1=O [Compound 1254],,,,,,,0,40,20,70,90,100,100,100,20,70,0,30,,,
Cc1cc(F)cc([C@H]2CN(C)C(=O)[C@@H]2C(=O)Nc2ccc(F)c(F)c2F)c1 [Compound 801],20,30,90,90,70,60,,,,,,,,,,,,,,,"pest or weed control at 31 g/ha [1, 7]: 0%; pest or weed control at 31 g/ha [2, 9]: 30%; pest or weed control at 31 g/ha [3, 11]: 80%; pest or weed control at 31 g/ha [4, 13]: 80%; pest or weed control at 31 g/ha (Kochia (Kochia scoparia); [15]): 40%; pest or weed control at 31 g/ha [5, 17]: 20%"
Cc1ccc([C@H]2CNC(=O)[C@@H]2C(=O)Nc2cccc(F)c2F)c(F)c1 [Compound 720],0,0,60,90,20,0,,,,,,,,,,,,,0,90,"pest or weed control at 500 g/ha [1, 35]: 20%; pest or weed control at 500 g/ha [4, 32]: 100%; pest or weed control at 500 g/ha (Kochia (Kochia scoparia); [33]): 70%; pest or weed control at 500 g/ha [5, 34]: 80%"
N#Cc1cc([C@H]2CNC(=O)[C@]2(O)C(=O)Nc2ccccc2F)ccc1F [Compound 1200],,,,,,,0,0,0,0,0,0,0,0,0,0,0,0,,,
C=CCN1C[C@H](c2ccc(OC)c(F)c2)[C@@H](C(=O)Nc2ccccc2S(C)(=O)=O)C1=O [Compound 724],0,0,0,0,0,0,,,,,,,,,,,,,0,0,"pest or weed control at 500 g/ha [1, 35]: 0%; pest or weed control at 500 g/ha [4, 32]: 0%; pest or weed control at 500 g/ha (Kochia (Kochia scoparia); [33]): 0%; pest or weed control at 500 g/ha [5, 34]: 0%"
